# Measured values from paper PMC5554537 (Frontiers in Pharmacology, 2017).
# Where two headings read alike, the source gives them in different places.
# How the values were obtained:
# [1] = Reductive metabolism in liver S9 preparations; type: in vitro ADME, NIH-III mice; details: for Rate of reduction to M14: 20 μg/ml protein
# Procedure: In vitro hepatic metabolism of SN30000 and M14 was studied using 9,000 g post-mitochondrial supernatants (S9) prepared from livers of female NIH-III mice. Metabolism at 37°C was measured by dilution of S9 to appropriate protein concentrations (measured by BCA protein assay) in sodium/potassium phosphate buffer (67 mM phosphate, pH 7.4) containing 5 mM MgCl2, 1 mM EDTA, 1 mM NADPH, 1 mM NADH and 150 μM test drug. The reaction was terminated by adding an equal volume of ice-cold MeOH and samples were analyzed by LC-MS/MS. Two methods were used to modify the oxygen concentration. Method 1: 96-well plates (reaction volume 0.1 mL/well) were incubated for 30 min on a Eppendorf Thermomixer C (Eppendorf AG, Hamburg, Germany) either under 21% O2 (oxia) or 95% N2/5% CO2 (anoxia) in an anaerobic chamber (Sheldon Manufacturing, Cornelius, OR, United States) as described previously ([Gu et al., 2010]). Method 2: glass vials containing 3 mL final volume were magnetically stirred continuously in a water bath under flowing 5% CO2 containing 0, 0.2, 2, or 20% O2 (certified gas mixtures from BOC Gasses NZ), as detailed previously ([Hicks et al., 2007]), and samples (0.1 mL) were withdrawn at intervals for analysis.
# To address whether this reflects an oxygen-sensitive (one-electron reduction) or oxygen-insensitive (two-electron reduction) process, metabolism was compared in NIH-III mouse liver S9 preparations under 20% O2 or anoxia. […] Using low protein concentrations (20 μg/ml) to enable assessment of initial rates, reduction to M14 was similar for anoxic liver S9 preparations from male and female NIH-III mice (10.6 ± 0.2 and 9.2 ± 0.2 nmol/min/mg protein, respectively). […] The liver S9 intrinsic clearance, CLint, was calculated as Vmax/Km for M14 formation under anoxia and scaled to the whole liver based on the (unrealistic) assumption that the liver is entirely anoxic. This upper estimate of in vivo hepatic clearance was then predicted as previously described ([Gu et al., 2011b]) using the free fraction of SN30000 in mouse plasma determined by equilibrium dialysis (Supplementary Table 11).
# [2] = plasma
# Procedure: SN30000, M14 and M18 dosing solutions were prepared fresh in normal saline, filtered through 0.45 μm Acrodisc filters (Pall Life Sciences, Port Washington, NY, United States), protected from light in amber vials, and used within 3 h. Doses are expressed as mg of free base equivalent for SN30000 and M14, and free acid in the case of M18. […] For evaluation of acute toxicity, mice were observed continuously for 3 h after dosing, and their activity rated on a lethargy score from 0 representing no change in activity to 5 representing animals that were moribund and required culling. For MTD studies, the animals were checked daily for clinical signs of toxicity and body weight change for 2 weeks. In some studies rectal temperature changes after dosing were measured using a BAT-12 digital microprobe thermometer (Physitemp Instruments, Clifton, NJ, United States) at the times specified in the figures. Blood samples were collected from mice at various times by cardiac puncture, seconds after cervical dislocation, into ice-cold tubes containing K2EDTA. These were placed on ice immediately after collection and centrifuged (3,000 g, 3 min) within 10 min to harvest plasma. Plasma and tissues were rapidly frozen in liquid nitrogen before storage at -80°C for subsequent bioanalysis.
# Concentration-time data were analyzed by non-compartmental analysis using Phoenix WinNonlin (ver 6.4, Build 6.4.0768 Pharsight, United States); all AUC values were extrapolated to infinity using the linear trapezoidal rule. A compartmental model for plasma PK after dosing with SN30000 or M14 was fitted using Phoenix NLME v1.3 with random effects on the metabolite volumes of distribution, and temperature effects based on the observed body temperature at the last measurement time. Temperature effects were added or removed until there was no significant change in the log likelihood. Model fits were further assessed by visual inspection of the residuals and predicted PK.
# SiHa cells = assay: Oxygen consumption rate, Seahorse XFe96 analyser; type: cell-based, human; details: 200 µM, mitochondrial stress test
# Procedure: (OCR) of the human cervical carcinoma cell line SiHa and a previously described (Guise et al., 2007) POR-overexpressing transfectant SiHa/POR, determined using a Seahorse XFe96 Analyser (Agilent). Cells were passaged in αMEM plus 5% FCS, with 1 µM puromycin to maintain POR expression in the SiHa/POR cell line. Cells were ty pically seeded at 4×10^4 cells/well in Seahorse 96 well plates (without puromycin) and ~ 18 hr later the medium was changed to Seahorse medium with 10 mM glucose and 2 mM glutamine (SMGG) adjusted to pH 7.35 (150 µl/well). Plates were degassed to remove CO2, and inhibitors were added serially using the Seahorse injectors (25 µl/injection) with rotenone (final concentration 0.5 µM) typically added at the start of the 30 min equilibration in the flux analyser. OCR was monitored for three 3 min periods following each drug addition. […]
# injection 1 and at each subsequent injection to maintain concentrations at 200 µM continuously during the test. The control received equivalent injections of SMGG without drugs. In all cases (including controls), injection 2 added oligomycin to give 0.5 µM, injection 3 added carbonyl cyanide […] (FCCP) to 0.5 µM, and injection 4 added rotenone and antimy cin to 1 µM each. V alues are means and errors are standard deviations, for 6 replicate cultures. […]
# suppressed by M14, both in the presence (injection 1) and absence (injection 4) of respiratory […]
# presence or absence of 0.5 µM rotenone when SN30000 is added cumulatively to give the indicated concentrations. Values are means and SEM for 5 replicate cultures. The fall in OCR after transient stimulation at each addition of SN30000 is consistent with the pattern for CHO/POR cells in Supplementary Fig. 4A.
# C: Concentration dependence of increases in OCR by SiHa/POR cells, measured at the first […]
# effects noted above. Left panel: SN30000. Right panel: TPZ. Values are means and errors are […]
# [3] = Mouse toxicity: MTD, survival and body weight loss after single i.p. doses; type: in vivo, NIH-III mice; details: mouse, in vivo, ip, NIH-III mice; for MTD at 14 days: both sexes, single i.p. dose
# From the text: (§1) Mouse toxicity SN30000 and metabolites M14 and M18: survival and body weight loss following single i.p. doses to NIH-III mice.
# (§2) Cmpd Dose Body weight nadir Body weight nadir
# (§3) (µmol/kg) Survivala Survivala
# (§4) Day Weight loss (%)b Day Weight loss (%)b […]
# (§5) a Survival reported as a fraction of total nu mber of animal treated at a giv en dose, with an observation time of 14 days. Deaths were predominantly due to humane ter mination because of persistent clinical signs or body weight loss > 15% of pretreatment values. b Body weig ht loss at nadir, relative to pre-treatment values. Values are mean and errors are […]
# (§6) c Data from Gu et al., 2014 d Mouse died <24 hr after dosing.
# NIH-III mice = assay: as above; type: in vivo; details: for Survival: 14 days
# From the text: as §1, §2, §3, §4, §5, §6
compound,measurement,setting,value
"[O-][n+]1nc(CCCN2CCOCC2)[n+]([O-])c2cc3c(cc21)CCC3 [SN30000, 3-(3-Morpholinopropyl)-7,8-dihydro-6H-indeno[5,6-e][1,2,4]triazine 1,4-dioxide]",Rate of reduction to M14,[1]; anoxic liver S9 from female mice,9.2 ± 0.2 nmol/min/mg protein
same,Rate of reduction to M14,[1]; anoxic liver S9 from male mice,10.6 ± 0.2 nmol/min/mg protein
same,Vmax for formation of M14,[1]; anoxic mouse liver S9,71 ± 2 nmol/min/mg protein
same,Predicted hepatic clearance,[1]; dispersion model,4.69 L/h/kg
same,Km,"[1]; female, NIH-III, liver S9 (9,000 g post-mitochondrial supernatant), pH 7.4, anoxic mouse liver S9, read-out: Apparent Km for formation of M14",974 ± 71 µM
same,Predicted hepatic clearance,[1]; parallel tube model,5.01 L/h/kg
same,Predicted hepatic clearance,"[1]; well-stirred model, from anoxic S9 CLint, liver assumed entirely anoxic",3.91 L/h/kg
same,Apparent Cl,[2]; i.p. SN30000 1.86 mg/kg,33.2 L/h/kg
same,Apparent Cl,[2]; i.p. SN30000 18.6 mg/kg,26.8 L/h/kg
same,Apparent Cl,[2]; i.p. SN30000 78.3 mg/kg,7.54 L/h/kg
same,Apparent Cl,[2]; i.p. SN30000 92.8 mg/kg,5.70 L/h/kg
same,Apparent Cl,[2]; i.p. SN30000 186 mg/kg,3.55 L/h/kg
same,Effect on oxygen consumption rate (OCR),SiHa cells,increased
same,MTD at 14 days,[3],562 µmol/kg
same,MTD at 14 days,[3]; equivalent to 562 μmol/kg,186 mg/kg
[O-][n+]1nc(CCCN2CCOCC2)nc2cc3c(cc21)CCC3 [M14],Effect on oxygen consumption rate (OCR),SiHa cells,suppressed
same,"Body weight nadir, Day","NIH-III mice; female, 562 µmol/kg i.p.",3
same,"Body weight nadir, Weight loss","NIH-III mice; female, 562 µmol/kg i.p.",2.6 ± 0.4%
same,Survival,"NIH-III mice; female, 562 µmol/kg i.p.",3/3
same,Survival,"NIH-III mice; female, 750 µmol/kg i.p.",0/1
same,"Body weight nadir, Day","NIH-III mice; male, 562 µmol/kg i.p.",1
same,"Body weight nadir, Weight loss","NIH-III mice; male, 562 µmol/kg i.p.",0.7 ± 0.5%
same,Survival,"NIH-III mice; male, 562 µmol/kg i.p.",3/3
same,Survival,"NIH-III mice; male, 750 µmol/kg i.p.",0/2
same,"Body weight nadir, Day","NIH-III mice; male, 1000 µmol/kg i.p.",1
same,"Body weight nadir, Weight loss","NIH-III mice; male, 1000 µmol/kg i.p.",2.0%
same,Survival,"NIH-III mice; male, 1000 µmol/kg i.p.",1/1
same,MTD at 14 days,[3],562 µmol/kg
same,MTD at 14 days,[3]; equivalent to 562 μmol/kg,177 mg/kg
same,MTD at 2 weeks,[3]; as stated for the temperature study (Figure 4),135 mg/kg
O=C(O)CCc1nc2cc3c(cc2[n+]([O-])n1)CCC3 [M18],"Body weight nadir, Weight loss","NIH-III mice; female, 562 µmol/kg i.p.",No decrease in body weight
same,Survival,"NIH-III mice; female, 562 µmol/kg i.p.",3/3
